From patent US20240408216A1, “PROTEIN INHIBITOR OR DEGRADING AGENT, PHARMACEUTICAL COMPOSITION CONTAINING SAME AND PHARMACEUTICAL USE” (JING MEDICINE TECHNOLOGY (SHANGHAI) LTD., priority 2021, published 2024)

Columns and labels:
[1] = system: BaF3 (EGFR L858R/T790M/C797S); assay: Cell proliferation IC50 assay (Cell Titer GLO), BaF3 LTC cells; type: cell-based; settings: Mus musculus, Ba/F3 EGFR, Table 6, 72 h
Protocol: (§1) IC50 of compounds in the present invention was determined by Cell Titer GLO reagent from Promega. The procedures are as follows:
(§2) Tumor cells were cultured in specified medium in an incubator at 37° C. and 5% CO2. The cells were passaged periodically. Cells at the logarithmic growth phase were collected for plating at a density of 2000-4000 cells/well. The next day, the compounds of the present invention were serially diluted and added to the cells, with DMSO being the negative control and the culture media without cells being the blank control. The plate was incubated in the incubator for 72 h. The cell viability assay was performed by adding the detection reagents to the cell culture media according to Cell Titer GLO reagent instructions and detecting luminescent signals on an EnVision microplate reader (PerkinElmer).
(§3) Inhibition of cell growth by the compounds of the present invention was plotted by Prism Graphpad software for statistically calculating the IC50 of the compound of the present invention.

[2] = target: T1, BaF3 (EGFR Del19/C797S) (Homo sapiens, UniProt P00533, C797S, cells depend on it, form not given); assay: Cell proliferation IC50 assay (Cell Titer GLO), BaF3 DC cells; type: cell-based, mouse; settings: Table 6, 72 h
T1 construct: BaF3 (EGFR Del19/C797S)|DC|RPMI1640 + 10% FBS
Protocol: as §1, §2, §3

[3] = system: BaF3 (EGFR WT); assay: Cell proliferation IC50 assay (Cell Titer GLO), BaF3 WT cells; type: cell-based; settings: Mus musculus, Ba/F3 EGFR, Table 6, 10 ng/ml EGF, 72 h
Protocol: as §1, §2, §3

[4] = system: A431; assay: Cell proliferation IC50 assay (Cell Titer GLO), A431 cells; type: cell-based; settings: Homo sapiens, A-431; Table 6; A431, 72 h; read-out: A431 IC50
Protocol: as §1, §2, §3

T1 sequence (P00533 with tags, fused parts or gaps DEL746-750/C797S, form open): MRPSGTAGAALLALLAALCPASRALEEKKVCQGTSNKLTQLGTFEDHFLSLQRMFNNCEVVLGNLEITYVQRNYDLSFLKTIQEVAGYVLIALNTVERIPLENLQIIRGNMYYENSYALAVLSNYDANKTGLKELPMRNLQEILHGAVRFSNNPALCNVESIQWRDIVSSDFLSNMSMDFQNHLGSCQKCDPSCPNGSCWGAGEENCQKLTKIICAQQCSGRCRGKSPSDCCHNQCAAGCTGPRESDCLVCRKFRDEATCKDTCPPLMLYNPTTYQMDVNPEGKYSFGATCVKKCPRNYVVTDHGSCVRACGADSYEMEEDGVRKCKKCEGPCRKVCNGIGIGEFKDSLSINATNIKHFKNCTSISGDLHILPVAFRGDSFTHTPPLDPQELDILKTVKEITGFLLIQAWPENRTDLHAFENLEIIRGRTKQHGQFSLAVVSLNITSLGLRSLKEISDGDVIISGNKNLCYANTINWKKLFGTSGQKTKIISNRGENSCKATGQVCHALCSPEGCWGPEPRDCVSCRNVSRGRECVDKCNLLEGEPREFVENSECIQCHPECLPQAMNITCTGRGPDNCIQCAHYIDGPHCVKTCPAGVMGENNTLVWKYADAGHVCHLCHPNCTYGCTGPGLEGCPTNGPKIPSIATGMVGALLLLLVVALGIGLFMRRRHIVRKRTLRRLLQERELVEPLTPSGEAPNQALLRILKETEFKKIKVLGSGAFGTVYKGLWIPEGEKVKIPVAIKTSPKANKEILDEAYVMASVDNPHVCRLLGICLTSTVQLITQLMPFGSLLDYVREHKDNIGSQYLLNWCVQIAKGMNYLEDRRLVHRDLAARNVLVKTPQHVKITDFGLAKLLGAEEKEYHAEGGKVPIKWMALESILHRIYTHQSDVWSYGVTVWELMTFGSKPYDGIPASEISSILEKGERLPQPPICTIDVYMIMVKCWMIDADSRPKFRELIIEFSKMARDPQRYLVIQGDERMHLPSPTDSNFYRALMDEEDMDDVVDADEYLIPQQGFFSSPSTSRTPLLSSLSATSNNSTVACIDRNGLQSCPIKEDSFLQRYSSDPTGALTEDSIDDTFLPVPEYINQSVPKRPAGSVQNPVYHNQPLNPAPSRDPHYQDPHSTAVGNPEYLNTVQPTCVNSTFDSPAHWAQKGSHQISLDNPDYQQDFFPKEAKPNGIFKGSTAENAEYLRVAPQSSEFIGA

Structure (SMILES)	IC50 [1] [nM]	IC50 [2] [nM]	IC50 [3] [nM]	IC50 [4] [nM]
CCc1cc(Nc2ncc(Cl)c(Nc3ccccc3P(C)(C)=O)n2)c(OC)cc1N1CCC(N2CCc3ccc(Oc4cccc5c4CN(C4CCC(=O)NC4=O)C5=O)cc3CC2)CC1 (stereo not shown) [Example E34]	16.9	2.5	1260	1480
CCc1cc(Nc2ncc(Cl)c(Nc3ccccc3P(C)(C)=O)n2)c(OC)cc1N1CCC(N2CCN(CCCCCc3cccc4c3CN(C3CCC(=O)NC3=O)C4=O)CC2)CC1 (stereo not shown) [Example E39]	19.2	4.2	250	928
CCc1cc(Nc2ncc(Cl)c(Nc3ccccc3P(C)(C)=O)n2)c(OC)nc1N1CCC(N2CCN(CCC#Cc3cccc4c3CN(C3CCC(=O)NC3=O)C4=O)CC2)CC1 (stereo not shown) [Example E41]	44.4	8.2	≥ 1060	2240
CCc1cc(Nc2ncc(Cl)c(Nc3ccccc3N(C)S(C)(=O)=O)n2)c(OC)cc1N1CCC(N2CCN(CCC#Cc3cccc4c3CN(C3CCC(=O)NC3=O)C4=O)CC2)CC1 (stereo not shown) [Example E42]	43.4	5.6	90.7	1140
CCCc1cc(Nc2ncc(Cl)c(Nc3ccccc3P(C)(C)=O)n2)c(OC)cc1N1CCC(N2CCN(CCC#Cc3cccc4c3CN(C3CCC(=O)NC3=O)C4=O)CC2)CC1 (stereo not shown) [Example E44]	17.9	6.6	> 4000	3490
CCc1cc(Nc2ncc(Cl)c(Nc3ccccc3P(C)(C)=O)n2)c(OC)cc1N1CCC2(CCN(CCCCOc3cccc4c3CN(C3CCC(=O)NC3=O)C4=O)CC2)CC1 (stereo not shown) [Example E47]	36.9	9.5	461	> 4000
CCc1cc(Nc2ncc(Cl)c(Nc3ccc4[nH]ncc4c3P(C)(C)=O)n2)c(OC)cc1N1CCC(N2CCN(CCC#Cc3cccc4c3CN(C3CCC(=O)NC3=O)C4=O)CC2)CC1 (stereo not shown) [Example E51]	57.8	14	> 4000	1090
COc1cc(N2CCC(N3CCN(CCC#Cc4cccc5c4CN(C4CCC(=O)NC4=O)C5=O)CC3)CC2)c(C#N)cc1Nc1ncc(Cl)c(Nc2ccccc2P(C)(C)=O)n1 (stereo not shown) [Example E52]	41.7	15.2	> 4000	1040
CCc1cc(Nc2ncc(Cl)c(Nc3ccccc3P(C)(C)=O)n2)c(OC)cc1N1CCC(N2CCN(CCC#Cc3c(F)ccc4c3CN(C3CCC(=O)NC3=O)C4=O)CC2)CC1 (stereo not shown) [Example E54]	51.4	20.3	353	1180
CCc1cc(Nc2ncc(Cl)c(Nc3ccccc3P(C)(C)=O)n2)c(OC)cc1N1CCC(N2CCN(CCCCOc3ccc4c(c3F)CN(C3CCC(=O)NC3=O)C4=O)CC2)CC1 (stereo not shown) [Example E59]	67.1	22.7	1320	1440
CCc1cc(Nc2ncc(Cl)c(Nc3ccccc3P(C)(C)=O)n2)c(OC)cc1N1CCC2(CC1)CC(N(C)CCCC#Cc1cccc3c1CN(C1CCC(=O)NC1=O)C3=O)C2 (stereo not shown) [Example E60]	77.1	39.7	> 4000	> 4000
COc1cc(N2CCC3(CCN(CCCC#Cc4cccc5c4CN(C4CCC(=O)NC4=O)C5=O)CC3)CC2)c(C2CC2)cc1Nc1ncc(Cl)c(Nc2ccccc2P(C)(C)=O)n1 (stereo not shown) [Example E62]	96.1	51.1	> 4000	> 4000
CCc1cc(Nc2nc(Nc3ccccc3P(C)(C)=O)c3cc[nH]c3n2)c(OC)cc1N1CCC(N2CCN(CCCCOc3cccc4c3CN(C3CCC(=O)NC3=O)C4=O)CC2)CC1 (stereo not shown) [Example E64]	41.5	11.7	> 4000	> 4000
CCc1cc(Nc2ncc(Cl)c(Nc3ccccc3P(C)(C)=O)n2)c(OC)cc1N1CCC(N2CCN(CCOc3cc(F)cc4c3CN(C3CCC(=O)NC3=O)C4=O)CC2)CC1 (stereo not shown) [Example E66]	59.7	10.6	2490	1990
CCc1cc(Nc2ncc(-n3cc(C)cn3)c(Nc3ccccc3P(C)(C)=O)n2)c(OC)cc1N1CCC(N2CCN(CCOc3ccc4c(c3)CN(C3CCC(=O)NC3=O)C4=O)CC2)CC1 (stereo not shown) [Example E68]	> 4000	18.6	> 4000	> 4000
CCc1cc(Nc2ncc(-c3cnn(C)c3)c(Nc3ccccc3P(C)(C)=O)n2)c(OC)cc1N1CCC(N2CCN([C@H]3C[C@H](Oc4cccc5c4CN(C4CCC(=O)NC4=O)C5=O)C3)CC2)CC1 (stereo partly shown) [Example E70]	> 4000	0.7	267	1250

Structure (SMILES)	IC50 [1] [nM]	IC50 [2] [nM]	IC50 [3] [nM]	IC50 [4] [nM]
CCc1cc(Nc2ncc(Cl)c(Nc3ccccc3P(C)(C)=O)n2)c(OC)cc1N1CCC2(CCN(CCCC#Cc3c(F)ccc4c3CN(C3CCC(=O)NC3=O)C4=O)CC2)CC1 (stereo not shown) [Example E74]	160	37.6	> 4000	> 4000
CCc1cc(Nc2ncc(Cl)c(Nc3ccccc3P(C)(C)=O)n2)c(OC)cc1N1CCC(N2CCc3ccc(Oc4cccc5c4CN(C4CCC(=O)NC4=O)C5=O)cc3C2)CC1 (stereo not shown) [Example E76]	147	30.1	> 4000	> 4000
CCc1cc(Nc2ncc(Cl)c(Nc3ccccc3P(C)(C)=O)n2)c(OC)cc1N1CCC(N2CCC3(CC(Oc4cccc5c4CN(C4CCC(=O)NC4=O)C5=O)C3)C2)CC1 (stereo not shown) [Example E83]	18	1.2	1450	1470
CCc1cc(Nc2ncc(Cl)c(Nc3ccccc3P(C)(C)=O)n2)c(OC)cc1N1CCC(N2CCN(C3(C#Cc4cccc5c4CN(C4CCC(=O)NC4=O)C5=O)CC3)CC2)CC1 (stereo not shown) [Example E84]	85.5	25.4	> 4000	1970
CCc1cc(Nc2ncc(Cl)c(Nc3ccccc3P(C)(C)=O)n2)c(OC)cc1N1CCC(N2CCN(C3(/C=C\c4cccc5c4CN(C4CCC(=O)NC4=O)C5=O)CC3)CC2)CC1 (stereo not shown) [Example E85]	53	13.7	1880	1370
CCc1cc(Nc2ncc(Cl)c(Nc3ccccc3P(C)(C)=O)n2)c(OC)cc1N1CCC(N2CCN(C(=O)CCCOc3cccc4c3CN(C3CCC(=O)NC3=O)C4=O)CC2)CC1 (stereo not shown) [Example E88]	59.9	9.1	2700	1610
CCc1cc(Nc2ncc(Cl)c(Nc3ccccc3P(C)(C)=O)n2)c(OC)cc1N1CCC2(CCN(C(=O)CCCOc3cccc4c3CN(C3CCC(=O)NC3=O)C4=O)CC2)CC1 (stereo not shown) [Example E90]	143	13.1	2070	≥ 3700
CCc1cc(Nc2ncc(Cl)c(Nc3ccccc3P(C)(C)=O)n2)c(OC)cc1N1CCC(N2CCN(CCCCOc3cc4c(cc3F)C(=O)N(C3CCC(=O)NC3=O)C4)CC2)CC1 (stereo not shown) [Example E92]	72.6	12.7	692	1170
CCc1cc(Nc2ncc(Cl)c(Nc3ccccc3P(C)(C)=O)n2)cc(C#N)c1N1CCC(N2CCN(CCC#Cc3cccc4c3CN(C3CCC(=O)NC3=O)C4=O)CC2)CC1 (stereo not shown) [Example E94]	57	40.2	50.6	524
COc1cc2c(cc1Nc1ncc(Cl)c(Nc3ccccc3P(C)(C)=O)n1)CCN(C1CCN(C(=O)COc3cccc4c3CN(C3CCC(=O)NC3=O)C4=O)CC1)C2 (stereo not shown) [Example E100]	1130	515	1230	> 4000
CCc1cc(Nc2ncc(Cl)c(Nc3ccccc3P(C)(C)=O)n2)c(OC)cc1N1CCC(N2CCN(CCCCOc3cccc4c3CN(C3CCC(=O)NC3=O)C4=O)CC2=O)CC1 (stereo not shown) [Example E101]	51.6	6.8	1690	1440
CCc1cc(Nc2ncc(Cl)c(Nc3ccccc3P(C)(C)=O)n2)c(OC)cc1N1CCC2(CCN(C(=O)COc3cccc4c3CN(C3CCC(=O)NC3=O)C4=O)CC2)CC1 (stereo not shown) [Example E104]	43.8	9.1	2270	> 4000
CCc1cc(Nc2ncc(C(=O)OC(C)C)c(Nc3ccccc3P(C)(C)=O)n2)c(OC)cc1N1CCC(N2CCN(CCCCOc3cccc4c3CN(C3CCC(=O)NC3=O)C4=O)CC2)CC1 (stereo not shown) [Example E105]	2060	10.5	1490	1970
CCc1cc(Nc2ncc(Cl)c(Nc3ccccc3P(C)(C)=O)n2)c(OC)cc1N1CCC(N2CCN(CCNc3cccc4c3C(=O)N(C3CCC(=O)NC3=O)C4=O)CC2)CC1 (stereo not shown) [Example E106]	226	16.8	> 4000	1370
CCc1cc(Nc2ncc(Cl)c(Nc3ccccc3P(C)(C)=O)n2)c(OC)cc1N1CCC(N2CCN(CCCc3cccc4c3CN(C3CCC(=O)NC3=O)C4=O)C(=O)C2)CC1 (stereo not shown) [Example E107]	158	12.1	> 4000	1340
CCc1cc(Nc2ncc(Cl)c(Nc3ccccc3P(C)(C)=O)n2)c(OC)cc1N1CCC(N2Cc3cc(Oc4cccc5c4CN(C4CCC(=O)NC4=O)C5=O)ccc3C2=O)CC1 (stereo not shown) [Example E211]	59.2	–	3300	> 4000
